According to patent US8119666B2, “1,2,5-thiazolidine derivatives useful for treating conditions mediated by protein tyrosine phosphatases (PTPase)” (Novartis AG, priority 2005, dated 2012):
pIC50: −log10 of the molar value.

Target: T1, human PTP-1B (Homo sapiens, UniProt P18031)
T1 construct: recombinant human PTP-1B[1-298] or PTP-1B[1-322]
T1 sequence (P18031 1-298 limits assumed): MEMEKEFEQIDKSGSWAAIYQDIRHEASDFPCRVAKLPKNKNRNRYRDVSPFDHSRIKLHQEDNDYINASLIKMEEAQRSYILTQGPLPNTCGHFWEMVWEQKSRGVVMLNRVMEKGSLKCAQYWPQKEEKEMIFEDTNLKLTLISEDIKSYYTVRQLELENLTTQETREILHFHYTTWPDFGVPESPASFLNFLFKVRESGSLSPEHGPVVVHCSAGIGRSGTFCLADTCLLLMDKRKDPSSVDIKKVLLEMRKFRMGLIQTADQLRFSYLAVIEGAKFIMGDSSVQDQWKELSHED
Assay: PTP-1B inhibitory activity in vitro (IC50)
Assay type: biochemical
Settings: inhibitory activity to human PTP-1B; which of the described assay formats was used is not stated
Description: Assessment of human PTP-1B (hPTP-1B) activity in the presence of various agents is determined by measuring the amount of inorganic phosphate released from a phosphopeptide substrate using a 96-well microtiter plate format. The assay (100 μL) is performed in an assay buffer comprised of 50 mM TRIS (pH 7.5), 50 mM NaCl, 3 mM DTT at ambient temperature. The assay is typically performed in the presence of 0.4% dimethyl sulfoxide (DMSO). However, concentrations as high as 10% are used with certain poorly soluble compounds. […] Inorganic phosphate, a product of the enzyme reaction, is quantitiated after 15 min as the green color resulting from complexing with the Malichite reagent and is determined as an A620 using a Molecular Devices (Sunnyvale, Calif.) SpectraMAX Plus spectrophotometer. […] Activity is defined as the net change in absorbance resulting from the activity of the uninhibited hPTP-1B[1-411] minus that of a tube with acid-inactivated hPTP-1B[1-411].
Alternatively, the assessment of human PTP-1B activity in the presence of various agents may be determined by measuring the hydrolysis products of known competing substrates. For example, cleavage of substrate para-nitrophenylphosphate (pNPP) results in the release of the yellow-colored para-nitrophenol (pNP) which can be monitored in real time using a spectrophotometer. […]

| pIC50 | SMILES |
| --- | --- |
| 6.90 | CS(=O)(=O)Oc1c(Cl)cccc1Cc1ccc(N2CC(=O)NS2(=O)=O)c(O)c1 [Example No. 52-1, Methanesulfonic acid 2-chloro-6-[3-hydroxy-4-(1,1,4-trioxo-1,2,5-thiadiazolidin-2-yl)-benzyl]-phenyl ester] |
| 6.88 | COc1ccc(Cc2ccc(N3CC(=O)NS3(=O)=O)c(O)c2)c(OS(C)(=O)=O)c1 [Example No. 52-3, Methanesulfonic acid 2-[3-hydroxy-4-(1,1,4-trioxo-1,2,5-thiadiazolidin-2-yl)-benzyl]-5-methoxyphenyl ester] |
